# Source: patent US9845512B2, “Screening assay employing Dex and GDF8” (RIGEL PHARMACEUTICALS, INC., priority 2010, dated 2017)
# System: endogenous MuRF1
# Assay: Endogenous MuRF1 expression in HepG2 cells by Taqman RT-PCR
# Assay type: cell-based, human
# Method: Cultured HepG2 cells were exposed to 1 μM dexamethasone, 10 μM dexamethasone, 100 ng/ml GDF8, 100 ng/ml TGFβ1, and 10 μM dexamethasone+100 ng/ml GDF8, and expression of endogenous MuRF1 was evaluated by RT-PCR using Taqman RT-PCR assay. […] 10 μM dexamethasone induced expression of endogenous MuRF1 2.5× over the no treatment control, and 100 ng/ml GDF8 induced expression of endogenous MuRF1 1.8× over the no treatment control.
# MuRF1 induction is observable at four hours of treatment, as compared to controls.
Compound,induction of endogenous MuRF1 expression over the no treatment control (10 μM dexamethasone alone),induction of endogenous MuRF1 expression over the no treatment control (100 ng/ml GDF8 alone)
C[C@@H]1C[C@H]2[C@@H]3CCC4=CC(=O)C=C[C@]4(C)[C@@]3(F)[C@@H](O)C[C@]2(C)[C@@]1(O)C(=O)CO [dexamethasone],2.5 ×,–
GDF8: secreted TGFβ protein family member that inhibits muscle differentiation and growth; ligand for the myostatin receptor,–,1.8 ×
